Assays:
Experiment in all cases: relative viability (nuclei count vs DMSO), 5 days (fraction); higher = more cells survive
Entinostat + Pictilisib = compound: Nc1ccccc1NC(=O)c1ccc(CNC(=O)OCc2cccnc2)cc1 [Entinostat] + CS(=O)(=O)N1CCN(Cc2cc3nc(-c4cccc5[nH]ncc45)nc(N4CCOCC4)c3s2)CC1 [Pictilisib] (partner 1 µM)
Outline: (§1)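 Lung cancer cell lines in 1536-well plates got either a single drug or a fixed anchor-drug dose together with five library-drug doses (not always all listed) in √10 steps, by pin tool, on the day after seeding. Nuclei were counted after 5 days, and relative viability is the treated-to-vehicle ratio of nuclei counts. Values are medians of duplicate plates.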

SGI-1776 + Decitabine = compound: CN1CCC(CNc2ccc3ncc(-c4cccc(OC(F)(F)F)c4)n3n2)CC1 [SGI-1776] + Nc1ncn([C@H]2C[C@H](O)[C@@H](CO)O2)c(=O)n1 [Decitabine] (partner 2 µM)
Outline: as §1

[1] = compound: C1COCCN1C2=NC(=NC3=C2OC4=C3C=CC=N4)C5=CC(=CC=C5)NC(=O)C6=CN=C(C=C6)N + Cc1nc(NC(=O)N2CCC[C@H]2C(N)=O)sc1-c1ccnc(C(C)(C)C(F)(F)F)c1 [Alpelisib] (partner 2 µM)
Outline: as §1

Entinostat + Phenformin = compound: Nc1ccccc1NC(=O)c1ccc(CNC(=O)OCc2cccnc2)cc1 [Entinostat] + N=C(N)NC(=N)NCCc1ccccc1 [Phenformin] (partner 250 µM)
Outline: as §1

| Cell Line | relative viability (Entinostat + Pictilisib; first compound 0.02 µM) | relative viability (Entinostat + Pictilisib; first compound 0.06325 µM) | relative viability (Entinostat + Pictilisib; first compound 0.2 µM) | relative viability (Entinostat + Pictilisib; first compound 0.6325 µM) | relative viability (Entinostat + Pictilisib; first compound 2 µM) | relative viability (SGI-1776 + Decitabine; first compound 0.08 µM) | relative viability (SGI-1776 + Decitabine; first compound 0.8 µM) | relative viability (SGI-1776 + Decitabine; first compound 2.53 µM) | relative viability (SGI-1776 + Decitabine; first compound 8 µM) | relative viability ([1]; first compound 0.02 µM) | relative viability ([1]; first compound 0.06325 µM) | relative viability ([1]; first compound 0.2 µM) | relative viability ([1]; first compound 0.6325 µM) | relative viability ([1]; first compound 2 µM) | relative viability (Entinostat + Phenformin; first compound 0.02 µM) | relative viability (Entinostat + Phenformin; first compound 0.06325 µM) | relative viability (Entinostat + Phenformin; first compound 0.2 µM) | relative viability (Entinostat + Phenformin; first compound 0.6325 µM) | relative viability (Entinostat + Phenformin; first compound 2 µM) |
| --- | --- | --- | --- | --- | --- | --- | --- | --- | --- | --- | --- | --- | --- | --- | --- | --- | --- | --- | --- |
| NCI-H2009 | 0.811 | 0.941 | 0.882 | 0.73 | 0.546 | 0.388 | 0.374 | 0.36 | 0.342 | 1.26 | 1.24 | 1.16 | 1.11 | 0.838 | 0.466 | 0.499 | 0.468 | 0.418 | 0.304 |
| LK-2 | 0.62 | 0.486 | 0.529 | 0.518 | 0.285 | 0.323 | 0.356 | 0.3 | 0.286 | 1.07 | 1.15 | 1.2 | 1.06 | 0.856 | 0.497 | 0.761 | 0.576 | 0.383 | 0.32 |
| HCC-78 | 0.212 | 0.194 | 0.178 | 0.108 | 0.128 | 0.714 | 0.739 | 0.636 | 0.657 | 0.34 | 0.331 | 0.378 | 0.324 | 0.318 | 0.819 | 0.751 | 0.55 | 0.329 | 0.27 |
| NCI-H3122 | 0.648 | 0.663 | 0.678 | 0.441 | 0.298 | 0.414 | 0.457 | 0.452 | 0.47 | 0.808 | 0.798 | 0.681 | 0.772 | 0.676 | 0.411 | 0.395 | 0.389 | 0.321 | 0.22 |
| HOP-62 | 0.578 | 0.743 | 0.603 | 0.139 | 0.0745 | 0.214 | 0.221 | 0.214 | 0.242 | 0.818 | 1.13 | 0.947 | 0.979 | 0.518 | 0.614 | 0.6 | 0.773 | 0.412 | 0.266 |
| NCI-H661 | 0.47 | 0.614 | 0.559 | 0.565 | 0.407 | 0.572 | 0.606 | 0.501 | 0.471 | 0.703 | 0.698 | 0.664 | 0.531 | 0.728 | 0.281 | 0.266 | 0.303 | 0.269 | 0.192 |
| NCI-H358 | 0.332 | 0.327 | 0.369 | 0.278 | 0.187 | 0.223 | 0.245 | 0.191 | 0.133 | 0.928 | 0.925 | 0.783 | 0.943 | 0.486 | 0.335 | 0.546 | 0.506 | 0.245 | 0.108 |
| BEN | 0.594 | 0.673 | 0.453 | 0.282 | 0.188 | 0.733 | 0.711 | 0.635 | 0.554 | 1.07 | 1.04 | 1.01 | 0.931 | 0.613 | 0.247 | 0.267 | 0.258 | 0.238 | 0.254 |
| SK-MES-1 | 0.356 | 0.465 | 0.506 | 0.376 | 0.277 | 0.365 | 0.372 | 0.367 | 0.303 | 0.949 | 1.07 | 0.984 | 0.971 | 0.724 | 0.614 | 0.699 | 0.721 | 0.657 | 0.504 |
| NCI-H1792 | 0.245 | 0.239 | 0.164 | 0.0977 | 0.0839 | 0.651 | 0.508 | 0.658 | 0.527 | 0.55 | 0.717 | 0.768 | 0.351 | 0.358 | 0.318 | 0.441 | 0.315 | 0.101 | 0.17 |
| NCI-H2085 | 0.477 | 0.388 | 0.378 | 0.382 | 0.403 | 0.549 | 0.505 | 0.606 | 0.556 | 0.956 | 0.988 | 0.926 | 0.909 | 0.596 | 0.716 | 0.774 | 0.706 | 0.461 | 0.375 |
| LCLC-103H | 0.611 | 0.603 | 0.636 | 0.452 | 0.479 | 0.738 | 0.656 | 0.762 | 0.69 | 0.87 | 0.993 | 0.962 | 0.967 | 0.878 | 0.36 | 0.379 | 0.331 | 0.265 | 0.229 |
| 201T | 0.708 | 0.662 | 0.625 | 0.532 | 0.467 | 0.847 | 0.894 | 0.886 | 0.827 | 1.03 | 1.03 | 0.926 | 0.96 | 0.966 | 0.46 | 0.414 | 0.451 | 0.382 | 0.303 |
| NCI-H2023 | 0.173 | 0.182 | 0.146 | 0.126 | 0.0933 | 0.224 | 0.207 | 0.228 | 0.182 | 0.68 | 0.621 | 0.544 | 0.438 | 0.359 | 0.355 | 0.407 | 0.327 | 0.162 | 0.0942 |
| NCI-H1395 | 0.598 | 0.758 | 0.64 | 0.67 | 0.487 | 0.721 | 0.708 | 0.58 | 0.674 | 1.03 | 1.03 | 0.998 | 1.45 | 0.89 | 0.441 | 0.494 | 0.421 | 0.417 | 0.416 |
| NCI-H23 | 0.496 | 0.576 | 0.499 | 0.404 | 0.296 | 0.326 | 0.323 | 0.35 | 0.305 | 0.661 | 0.822 | 0.66 | 0.772 | 0.491 | 0.71 | 0.667 | 0.796 | 0.762 | 0.501 |
| LXF-289 | 0.78 | 0.81 | 0.657 | 0.393 | 0.191 | 0.384 | 0.366 | 0.369 | 0.326 | 1.12 | 1.09 | 1.02 | 1 | 0.785 | 0.538 | 0.554 | 0.532 | 0.414 | 0.354 |
